Experimental data published in patent US6147100A, “Pyrrolidine derivatives having phospholipase A2 inhibitory activity” (Shionogi & Co., Ltd., priority 1997, dated 2000).

Key:
[1] = tested on: production of prostaglandin E2 by human fibroblasts; test: Inhibition of Production of Prostaglandin E2 in Human Fibroblasts (IL-1 stimulation); format: cell-based; settings: Fibroblast; human fibroblasts under stimulation with IL-1
Method in brief: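 Human fibroblasts stimulated with IL-1, with prostaglandin E2 production measured in the presence of compound as a cellular read-out of cPLA2 inhibition.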

[2] = molecular target: T1, cPLA2 (Homo sapiens, UniProt P47712); test: cPLA2 Inhibitory Activity; format: biochemical; settings: 1-palmitoyl-2-[14C]-arachidonoyl-sn-glycero-3-phosphocholine 2.5 μM, sn-1,2-dioleoylglycerol 1.25 μM; pH 7.5, 15 min at 37° C.
T1 sequence (P47712 1-749): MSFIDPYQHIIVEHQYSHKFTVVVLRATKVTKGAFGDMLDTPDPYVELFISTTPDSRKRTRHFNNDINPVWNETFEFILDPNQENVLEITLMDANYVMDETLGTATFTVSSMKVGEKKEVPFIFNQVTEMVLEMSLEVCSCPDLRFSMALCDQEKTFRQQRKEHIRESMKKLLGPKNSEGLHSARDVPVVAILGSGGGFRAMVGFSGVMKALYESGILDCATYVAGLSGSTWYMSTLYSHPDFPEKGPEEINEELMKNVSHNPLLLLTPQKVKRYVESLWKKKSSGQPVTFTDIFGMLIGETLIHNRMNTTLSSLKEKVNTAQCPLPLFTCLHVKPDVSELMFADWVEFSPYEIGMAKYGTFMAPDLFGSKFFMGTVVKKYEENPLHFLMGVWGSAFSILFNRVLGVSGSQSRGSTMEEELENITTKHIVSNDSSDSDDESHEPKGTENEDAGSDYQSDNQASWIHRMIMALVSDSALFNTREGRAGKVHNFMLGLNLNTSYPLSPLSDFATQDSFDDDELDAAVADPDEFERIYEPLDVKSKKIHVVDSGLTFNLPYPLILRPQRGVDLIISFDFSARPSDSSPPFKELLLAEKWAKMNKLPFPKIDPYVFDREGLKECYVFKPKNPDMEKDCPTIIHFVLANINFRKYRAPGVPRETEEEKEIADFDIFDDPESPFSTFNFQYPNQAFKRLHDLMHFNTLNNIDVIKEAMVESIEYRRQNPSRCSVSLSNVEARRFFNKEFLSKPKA
Method in brief: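 Radiometric assay in 50 mM HEPES pH 7.5 with 1 mM CaCl2, 150 mM NaCl, 0.1 mg/ml BSA and 1.7 mM DTT; compound and substrate added, reaction started with enzyme, 15 min at 37° C. Released fatty acids extracted (Dole method), counted by liquid scintillation versus no-compound control.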

| SMILES | IC50 [1] [nM] | IC50 [2] [nM] |
| --- | --- | --- |
| O=C1NC(=O)/C(=C/c2ccc(C(=O)NC[C@@H]3C[C@@H](SCc4ccccc4-c4ccccc4)CN3C(=O)c3ccccc3C(=O)c3ccc(F)cc3)s2)S1 [Compound I-7] | 690 | 39 |
| O=C1NC(=S)S/C1=C\c1ccc(C(=O)NC[C@@H]2C[C@@H](SCc3ccccc3-c3ccccc3)CN2C(=O)c2ccccc2C(=O)c2ccc(F)cc2)s1 [Compound I-8] | 1000 | 33 |
| O=C1NC(=O)/C(=C/c2ccc(S(=O)(=O)NC[C@@H]3C[C@@H](SCc4ccccc4-c4ccccc4)CN3C(=O)c3ccccc3C(=O)c3ccc(F)cc3)s2)S1 [Compound I-9] | 1800 | 240 |
| O=C1NC(=S)S/C1=C\c1ccc(S(=O)(=O)NC[C@@H]2C[C@@H](SCc3ccccc3-c3ccccc3)CN2C(=O)c2ccccc2C(=O)c2ccc(F)cc2)s1 [Compound I-10] | 320 | 760 |
| O=C1NC(=O)/C(=C/c2ccc(NC(=O)[C@@H]3C[C@@H](SCc4ccccc4-c4ccccc4)CN3C(=O)c3ccccc3C(=O)c3ccc(F)cc3)cc2)S1 [Compound J-1] | 120 | 84 |
| O=C1NC(=S)S/C1=C\c1ccc(NC(=O)[C@@H]2C[C@@H](SCc3ccccc3-c3ccccc3)CN2C(=O)c2ccccc2C(=O)c2ccc(F)cc2)cc1 [Compound J-2] | 960 | 23 |
| O=C1NC(=O)/C(=C/c2ccc(NC(=O)[C@@H]3C[C@@H](SCc4ccccc4-c4ccccc4)CN3C(=O)c3ccccc3C(=O)c3ccc(F)cc3)s2)S1 [Compound J-3] | 5700 | 430 |
| O=C1NC(=S)S/C1=C\c1ccc(NC(=O)[C@@H]2C[C@@H](SCc3ccccc3-c3ccccc3)CN2C(=O)c2ccccc2C(=O)c2ccc(F)cc2)s1 [Compound J-4] | 5200 | 810 |
| O=C1NC(=S)S/C1=C\c1ccc(NC(=O)[C@@H]2C[C@@H](SCc3ccccc3-c3ccccc3)CN2C(=O)c2ccccc2C(=O)c2ccc(F)cc2)c(O)c1 [Compound J-7] | 6200 | 500 |
| O=C1NC(=O)/C(=C/c2ccc(C(=O)NC[C@@H]3C[C@@H](N(Cc4ccccc4)Cc4ccccc4)CN3C(=O)c3ccccc3C(=O)c3ccc(F)cc3)cc2)S1 [Compound M-3] | 3100 | 60 |
| CC(C)CN(Cc1ccccc1)[C@@H]1C[C@@H](CNC(=O)c2ccc(/C=C3\SC(=O)NC3=O)cc2)N(C(=O)c2ccccc2C(=O)c2ccc(F)cc2)C1 [Compound M-5] | 3000 | 100 |
| CN(Cc1ccccc1-c1ccccc1)[C@@H]1C[C@@H](CNC(=O)c2ccc(/C=C3\SC(=O)NC3=O)cc2)N(C(=O)c2ccccc2C(=O)c2ccc(F)cc2)C1 [Compound M-6] | 1500 | 140 |
| CN(Cc1ccccc1-c1ccccc1)[C@@H]1C[C@@H](CNC(=O)c2ccc(/C=C3\SC(=S)NC3=O)cc2)N(C(=O)c2ccccc2C(=O)c2ccc(F)cc2)C1 [Compound M-7] | 1500 | 270 |
| CCN(Cc1ccccc1-c1ccccc1)[C@@H]1C[C@@H](CNC(=O)c2ccc(/C=C3\SC(=O)NC3=O)cc2)N(C(=O)c2ccccc2C(=O)c2ccc(F)cc2)C1 [Compound M-8] | 800 | 60 |
| CC(C)N(Cc1ccccc1-c1ccccc1)[C@@H]1C[C@@H](CNC(=O)c2ccc(/C=C3\SC(=O)NC3=O)cc2)N(C(=O)c2ccccc2C(=O)c2ccc(F)cc2)C1 [Compound M-9] | 3600 | 39 |
| CC(C)CN(Cc1ccccc1-c1ccccc1)[C@@H]1C[C@@H](CNC(=O)c2ccc(/C=C3\SC(=O)NC3=O)cc2)N(C(=O)c2ccccc2C(=O)c2ccc(F)cc2)C1 [Compound M-10] | 270 | 22 |
| CC(C)CCN(Cc1ccccc1-c1ccccc1)[C@@H]1C[C@@H](CNC(=O)c2ccc(/C=C3\SC(=O)NC3=O)cc2)N(C(=O)c2ccccc2C(=O)c2ccc(F)cc2)C1 [Compound M-11] | 970 | 36 |

| SMILES | IC50 [1] [nM] | IC50 [2] [nM] |
| --- | --- | --- |
| CN(C(c1ccccc1)c1ccccc1)[C@@H]1C[C@@H](CNC(=O)c2ccc(/C=C3\SC(=O)NC3=O)cc2)N(C(=O)c2ccccc2C(=O)c2ccc(F)cc2)C1 [Compound M-12] | 230 | 94 |
| O=C1NC(=O)/C(=C/c2ccc(C(=O)NC[C@@H]3C[C@@H](N(CC4CC4)C(c4ccccc4)c4ccccc4)CN3C(=O)c3ccccc3C(=O)c3ccc(F)cc3)cc2)S1 [Compound M-14] | 1400 | 27 |
| CC(C)CN(C(c1ccccc1)c1ccccc1)[C@@H]1C[C@@H](CNC(=O)c2ccc(/C=C3\SC(=O)NC3=O)cc2)N(C(=O)c2ccccc2C(=O)c2ccc(F)cc2F)C1 [Compound M-17] | 1000 | 4.1 |
| CC(C)CN(Cc1ccccc1)[C@@H]1C[C@@H](CNC(=O)/C=C/c2ccc(/C=C3\SC(=O)NC3=O)cc2)N(C(=O)c2ccccc2C(=O)c2ccc(F)cc2)C1 [Compound M-18] | 8800 | 79 |
| CC(C)CN(C(c1ccccc1)c1ccccc1)[C@@H]1C[C@@H](CNC(=O)/C=C/c2ccc(/C=C3\SC(=O)NC3=O)cc2)N(C(=O)c2ccccc2C(=O)c2ccc(F)cc2F)C1 [Compound M-21] | 310 | 2.1 |
| CN(Cc1ccccc1)[C@@H]1C[C@@H](C(=O)Nc2ccc(/C=C3\SC(=S)NC3=O)cc2)N(C(=O)c2ccccc2C(=O)c2ccc(F)cc2)C1 [Compound N-1] | 760 | 140 |
| CN(Cc1ccccc1-c1ccccc1)[C@@H]1C[C@@H](C(=O)Nc2ccc(/C=C3\SC(=O)NC3=O)cc2)N(C(=O)c2ccccc2C(=O)c2ccc(F)cc2)C1 [Compound N-2] | 1800 | 130 |
| CN(Cc1ccccc1-c1ccccc1)[C@@H]1C[C@@H](C(=O)Nc2ccc(/C=C3\SC(=S)NC3=O)cc2)N(C(=O)c2ccccc2C(=O)c2ccc(F)cc2)C1 [Compound N-3] | 1000 | 59 |
| O=C1NC(=O)/C(=C/c2ccc(C(=O)NC[C@@H]3C[C@@H](Cc4ccccc4-c4ccccc4)CN3C(=O)c3ccccc3C(=O)c3ccc(F)cc3)cc2)S1 [Compound O-1] | 760 | 200 |
| O=C1NC(=O)/C(=C/c2ccc(C(=O)NC[C@@H]3C[C@@H](COc4ccccc4-c4ccccc4)CN3C(=O)c3ccccc3C(=O)c3ccc(F)cc3)cc2)S1 [Compound O-2] | 230 | 58 |
| O=C1NC(=O)/C(=C/c2ccc(C(=O)NC[C@@H]3C[C@@H](CCc4ccccc4-c4ccccc4)CN3C(=O)c3ccccc3C(=O)c3ccc(F)cc3)cc2)S1 [Compound O-3] | 1100 | 55 |
| O=C1NC(=O)/C(=C/c2ccc(C(=O)NC[C@H]3C[C@@H](SCc4ccccc4-c4ccccc4)CN3C(=O)c3ccccc3C(=O)c3ccc(F)cc3)cc2)S1 [Compound Q-1] | 1200 | 2510 |
| O=C1NC(=O)/C(=C/c2ccc(C(=O)NC[C@H]3C[C@@H](OCc4ccccc4-c4ccccc4)CN3C(=O)c3ccccc3C(=O)c3ccc(F)cc3)cc2)S1 [Compound Q-2] | 1400 | 1810 |
| O=C1NC(=O)/C(=C/c2ccc(C(=O)NC[C@@H]3C[C@H](OCc4ccccc4-c4ccccc4)CN3C(=O)c3ccccc3C(=O)c3ccc(F)cc3)cc2)S1 [Compound Q-3] | 490 | 200 |
| O=C1NC(=O)/C(=C/c2ccc(C(=O)NC[C@H]3C[C@H](SCc4ccccc4-c4ccccc4)CN3C(=O)c3ccccc3C(=O)c3ccc(F)cc3)cc2)S1 [Compound Q-4] | 950 | 1850 |
| O=C1NC(=O)/C(=C/c2ccc(C(=O)NC[C@H]3C[C@H](OCc4ccccc4-c4ccccc4)CN3C(=O)c3ccccc3C(=O)c3ccc(F)cc3)cc2)S1 [Compound Q-5] | 1300 | 1920 |
